Test results as given in ChEMBL document CHEMBL6087460, “Generating a Peptide Library Using the Repeats of Amino Acid Scaffolds Created by Sliding the Framework of a 7-mer Human Chemerin Segment and Discovery of Potent Antibacterial and Antimycobacterial Peptides” (J Med Chem, 2025).
≈ marks a conversion by molar mass, not a printed value. Calls of active or inactive are those of the source. No cut-off for these calls is given here. Where a SMILES comes first, the peptide text is derived from it.

Key:
Staphylococcus aureus [1] = experiment: Induction of membrane depolarization in Staphylococcus aureus ATCC 25923 by diSC3-5 dye based analysis; format: functional, organism-based
Staphylococcus aureus [2] = experiment: Antibacterial activity against Staphylococcus aureus ATCC 25923 incubated for 16 to 18 hrs by broth dilution assay; format: functional; details: time 16-18 hrs
Staphylococcus aureus [3] = experiment: Antibacterial activity against Staphylococcus aureus ATCC 25923 incubated for 16 to 18 hrs in presence of 10 percent human serum by broth dilution assay; format: functional; details: time 16-18 hrs
Escherichia coli [4] = experiment: Antibacterial activity against Escherichia coli ATCC 25922 incubated for 16 to 18 hrs by broth dilution assay; format: functional; details: time 16-18 hrs
Escherichia coli [5] = experiment: Induction of membrane depolarization in Escherichia coli ATCC 25922 by diSC3-5 dye based analysis; format: functional, organism-based
[6] = tested on: Mycolicibacterium smegmatis; experiment: Antitubercular activity against Mycobacterium smegmatis incubated for 24 hrs by rezasurin dye based assay; format: functional
[7] = Hemolytic activity in human RBC measured after 40 mins by absorbance based assay; format: toxicity, cell-based, Erythrocyte; details: human red blood cells
Escherichia coli [8] = experiment: Disruption of plasma membrane integrity in Escherichia coli ATCC 25922 by SYTOX-Green uptake assay; format: functional, organism-based
Escherichia coli [9] = experiment: Bactericidal activity against Escherichia coli ATCC 25922 at MIC incubated for 60 mins by time kill assay; format: functional, organism-based
Staphylococcus aureus [10] = experiment: Bactericidal activity against Staphylococcus aureus ATCC 25923 at MIC incubated for 60 mins by time kill assay; format: functional, organism-based
Staphylococcus aureus [11] = experiment: Disruption of membrane integrity in Staphylococcus aureus ATCC 25923 by PI staining based analysis; format: functional, organism-based
Staphylococcus aureus [12] = experiment: Antibacterial activity against methicillin-resistant Staphylococcus aureus 33591 incubated for 16 to 18 hrs by broth dilution assay; format: functional; details: time 16-18 hrs
Klebsiella pneumoniae = experiment: Antibacterial activity against Klebsiella pneumoniae ATCC 27736 incubated for 16 to 18 hrs by broth dilution assay; format: functional; details: time 16-18 hrs
Escherichia coli [13] = experiment: Bactericidal activity against Escherichia coli ATCC 25922 incubated for 16 to 18 hrs; format: functional; details: time 16-18 hrs
[14] = (§1) Cytotoxicity against rat L6 cells assessed as cell viability at 100 uM incubated for 24 hrs by MTT assay relative to control; format: toxicity, cell-based; details: L6 cells, read-out: Activity
[15] = Hemolytic activity in human RBC assessed as disruption of membrane integrity by Alexa Fluor-Annexin V staining based analysis; format: toxicity, cell-based; details: erythrocyte
[16] = (§2) Cytotoxicity against mouse 3T3-L1 cells assessed as cell viability at 100 uM incubated for 24 hrs by MTT assay relative to control; format: toxicity, cell-based; details: 3T3-L1 cells, read-out: Activity
Pseudomonas aeruginosa = experiment: Antibacterial activity against Pseudomonas aeruginosa ATCC BAA-427 incubated for 16 to 18 hrs by broth dilution assay; format: functional; details: time 16-18 hrs
Staphylococcus aureus [17] = experiment: Antibacterial activity against methicillin-resistant Staphylococcus aureus BAA-44 incubated for 16 to 18 hrs by broth dilution assay; format: functional; details: time 16-18 hrs
Bacillus subtilis = experiment: Antibacterial activity against Bacillus subtilis 6633 incubated for 16 to 18 hrs by broth dilution assay; format: functional; details: time 16-18 hrs
Escherichia coli [18] = experiment: Disruption of membrane integrity in Escherichia coli ATCC 25922 by PI staining based analysis; format: functional, organism-based
Escherichia coli [19] = experiment: Antibacterial activity against Escherichia coli ATCC 25922 incubated for 16 to 18 hrs in presence of 10 percent human serum by broth dilution assay; format: functional; details: time 16-18 hrs
Staphylococcus aureus [20] = experiment: Disruption of plasma membrane integrity in Staphylococcus aureus ATCC 25923 by SYTOX-Green uptake assay; format: functional, organism-based
[21] = Hemolytic activity in human RBC at 100 uM measured after 40 mins by absorbance based assay relative to control; format: toxicity, cell-based, Erythrocyte
[22] = Retention time of compound by RP-HPLC method; format: physicochemical
Staphylococcus aureus [23] = experiment: Bactericidal activity against Staphylococcus aureus ATCC 25923 incubated for 16 to 18 hrs; format: functional; details: time 16-18 hrs
L6 = experiment: as §1; format: toxicity, cell-based; details: l6, 24 h, 100 µM
3T3-L1 = experiment: as §2; format: toxicity, cell-based; details: 3t3-l1, 24 h, 100 µM
[24] = Drug localization in cell membrane of Escherichia coli ATCC 25922 at 3 times MIC by confocal microscopy; format: ADME, cell membranes
Staphylococcus aureus [25] = experiment: Induction of resistance development in methicillin-resistant Staphylococcus aureus BAA-44 assessed as fold increase in MIC at sub-MIC measured after 30 passages relative to control; format: functional
Staphylococcus aureus [26] = experiment: Induction of resistance development in methicillin-resistant Staphylococcus aureus 33591 assessed as fold increase in MIC at sub-MIC measured after 30 passages relative to control; format: functional
Escherichia coli [27] = experiment: Induction of resistance development in Escherichia coli ATCC 25922 assessed as fold increase in MIC at sub-MIC measured after 30 passages relative to control; format: functional
Staphylococcus aureus [28] = experiment: Induction of resistance development in Staphylococcus aureus ATCC 25923 assessed as fold increase in MIC at sub-MIC measured after 30 passages relative to control; format: functional

Compound: H-LGRLLGRLLGRL-OH
- Activity (Staphylococcus aureus [1]): Active
- MIC (Staphylococcus aureus [2]): 9.4 µM
- MIC (Staphylococcus aureus [3]): 18.2 µM
- MIC (Escherichia coli [4]): 9.4 µM
- Activity (Escherichia coli [5]): Active
- MIC [6]: 5 µM
- HC50 at 40 min [7]: 2 mM
- Activity (Escherichia coli [8]): Active
- Activity (Escherichia coli [9]): Active; Exhibited Rapid Kinetics
- Activity (Staphylococcus aureus [10]): Active; Exhibited Rapid Kinetics
- Activity (Staphylococcus aureus [11]): Active
- MIC (Staphylococcus aureus [12]): 9.4 µM
- MIC (Klebsiella pneumoniae): 37.4 µM
- MBC (Escherichia coli [13]): 18.2 µM
- viability at 24 h, 100 µM [14]: > 80%
- Activity [15]: Non-toxic
- viability at 24 h, 100 µM [16]: > 80%
- MIC (Pseudomonas aeruginosa): 37.4 µM
- MIC (Staphylococcus aureus [17]): 4.7 µM
- MIC (Bacillus subtilis): 9.4 µM
- Activity (Escherichia coli [18]): Active
- MIC (Escherichia coli [19]): 18.2 µM
- Activity (Staphylococcus aureus [20]): Active
- Activity ([21]; erythrocyte, 40 min, 100 µM): Non-toxic
- Retention_time [22]: 15.4 min
- MBC (Staphylococcus aureus [23]): 18.2 µM

Compound: H-RLVRLVRLVRLVRLV-OH
- Activity (Staphylococcus aureus [1]): Active
- MIC (Staphylococcus aureus [2]): 1.7 µM
- MIC (Staphylococcus aureus [3]): 3.4 µM
- MIC (Escherichia coli [4]): 1.7 µM
- Activity (Escherichia coli [5]): Active
- MIC [6]: 5 µM
- HC50 at 40 min [7]: 0.232 mM
- Activity (Escherichia coli [8]): Active
- Activity (Escherichia coli [9]): Active; Exhibited Rapid Kinetics
- Activity (Staphylococcus aureus [10]): Active; Exhibited Rapid Kinetics
- Activity (Staphylococcus aureus [11]): Active
- MIC (Staphylococcus aureus [12]): 3.4 µM
- MIC (Klebsiella pneumoniae): 1.7 µM
- MBC (Escherichia coli [13]): 6.8 µM
- Activity (L6): Toxic
- Activity [15]: Non-toxic
- Activity (3T3-L1): Toxic
- MIC (Pseudomonas aeruginosa): 6.7 µM
- MIC (Staphylococcus aureus [17]): 1.7 µM
- MIC (Bacillus subtilis): 1.7 µM
- Activity (Escherichia coli [18]): Active
- MIC (Escherichia coli [19]): 6.8 µM
- Activity (Staphylococcus aureus [20]): Active
- hemolysis at 40 min, 100 µM ([21]; human red blood cells, read-out: Activity): 20%
- Retention_time [22]: 20.78 min
- MBC (Staphylococcus aureus [23]): 3.4 µM

Compound: CC(C)C[C@H](NC(=O)[C@H](CCCNC(=N)N)NC(=O)[C@@H](NC(=O)[C@H](CC(C)C)NC(=O)[C@H](CCCNC(=N)N)NC(=O)[C@@H](NC(=O)[C@H](CC(C)C)NC(=O)[C@H](CCCNC(=N)N)NC(=O)[C@@H](NC(=O)[C@H](CC(C)C)NC(=O)[C@H](CCCNC(=N)N)NC(=O)c1cc(C(=O)O)ccc1-c1c2ccc(=[N+](C)C)cc-2oc2cc(N(C)C)ccc12)C(C)C)C(C)C)C(C)C)C(=O)N[C@H](C(=O)O)C(C)C.[Cl-] (HELM PEPTIDE1{[CN(C)c1ccc2c(-c3ccc(C(=O)O)cc3C(=O)[*:2])c3ccc(=[N+](C)C)cc-3oc2c1].R.L.V.R.L.V.R.L.V.R.L.V}$$$$V2.0)
- Drug uptake [24]: Active

Compound: CN(C)[C@@H]1C(O)=C(C(N)=O)C(=O)[C@@]2(O)C(O)=C3C(=O)c4c(O)cccc4[C@@](C)(O)[C@H]3C[C@@H]12 [TETRACYCLINE]
- MIC (Staphylococcus aureus [2]): 3.1 µM (≈ 1.38 µg/mL)
- fold change (FC) (Staphylococcus aureus [25]): 128
- fold change (FC) (Staphylococcus aureus [26]): <=64
- MIC (Escherichia coli [4]): 3.1 µM (≈ 1.38 µg/mL)
- fold change (FC) (Escherichia coli [27]): 32
- MIC (Staphylococcus aureus [12]): 100 µM (≈ 44.4 µg/mL)
- MIC (Klebsiella pneumoniae): 3.1 µM (≈ 1.38 µg/mL)
- MIC (Pseudomonas aeruginosa): 50 µM (≈ 22.2 µg/mL)
- MIC (Staphylococcus aureus [17]): 100 µM (≈ 44.4 µg/mL)
- fold change (FC) (Staphylococcus aureus [28]): 64
- MIC (Bacillus subtilis): 1.6 µM (≈ 0.711 µg/mL)
